Reference: US20080187572A1, “Matrix Metalloproteinase Inhibitors of Tgfb-Induced Subcapsular Cataract Formation” (McMaster University, priority 2005, published 2008)
Entries after “also recorded” stand apart in the source; their conditions may differ.

B1: TGFβ: TGFβ2 (R&D Systems), growth factor used to induce subcapsular cataract in cultured rat lenses (protein, UniProt P61812 303-414, looked up)
Transforming growth factor …: ALDAAYCFRNVQDNCCLRPLYIDFKRDLGWKWIHEPKGYNANFCAGACPYLWSSDTQHSRVLSLYNTINPEASASPCCVSQDLEPLTILYYIGKTPKIEQLSNMIVKSCKCS

Legend:
[1] = system: alpha smooth muscle actin (α-SMA); test: Immunofluorescent localization of αSMA in lens cross-sections; type: cell-based, rat; details: co-cultured with TGFβ 2 ng/ml, 6 days
Experimental: Lenses were collected from different treatment groups and fixed overnight in 1:99 acetic acid: ethanol solution, dehydrated, embedded in paraffin, and processed for routine histology. For histological analysis, 5 μm sections were stained with hematoxylin and eosin. Immunofluorescence was performed on 5 μm thick paraffin-embedded sections. Sections were incubated with primary antibody specific for alpha smooth muscle actin (α-SMA, 1:100, Sigma) and bound primary antibodies were visualized with a fluorescein-isothiocyanate (FITC) anti-mouse secondary antibody, (1:50, Jackson ImmunoResearch Laboratories). All sections were mounted in Vectasheild mounting medium with 4′,6-Diaminodino-2-Phenylindol (DAPI, Vector Laboratories) to visualize the nuclei.
To carry out these experiments, excised rat lenses were treated with exogenous TGFβ for a period of 6 days. An untreated control lens (A), a lens treated with TGF-β (2 ng/mL) (B), a lens co-cultured with TGFβ (2 ng/mL) and GM6001 (25 μM) (C) and a lens co-cultured with TGF-β and MMPI-2/9 (2 umol/L) (D) are shown following 6 days of culture.

MMP-9 = test: Western blot of conditioned media for MMP-9 with densitometry; type: cell-based, rat; details: for MMP-9 protein in conditioned media (western blot, densitometry), FIG. 5B,C: co-treated with TGFβ 2 ng/ml, compared with TGFβ alone
Experimental: Equal volumes of sample were electrophoresed on a 10% SDS-polyacrylamide gel. The resolved bands were electro-transferred onto a nitrocellulose membrane (Pall Corporation). Membranes were blocked with 5% skimmed milk powder in Tris-buffered saline (50 mM Tris base, NaCl pH 8.5) and 0.1% Tween-20 and then incubated overnight at 4° C. with a polyclonal antibody generated against MMP-9 (1:500; Chemicon International) or MMP-2 (1:500:Chemicon International) or E-adherin (1:1500; ED Transduction Laboratories).
(§1) Following this incubation, membranes were probed with an HRP-conjugated secondary antibody (1:7500;Amersham Biosciences) and ECL detection reagents (Amersham Biosciences). The western blots were scanned by a densitometer and analyzed by image quantification software (ImageJ, NIH, USA). The relative density versus control ratio (RD/C) was estimated using Graph Pad Prism Program (GraphPad). Quantitative data were analyzed statistically using a student's t-test and expressed as ± standard deviation. A value of p<0.05 was considered significant.
The western blot data for MMP-9 from three separate experiments were analyzed by densitometry and the results are shown in FIG. 5C. Values are expressed as the Relative Density versus control ratio (RD/C)± standard deviation of 3 blots.

[2] = system: TGFβ-induced subcapsular cataract formation; test: Subcapsular plaque/opacity formation in cultured rat lenses (photography); type: cell-based; details: 6 days
Experimental: The previously established TGFβ-induced rat lens model was utilized for these studies. Briefly, lenses were obtained from adult male Wistar rats and cultured in 3.5 ml of serum free M199 medium supplemented with 50 IU/ml penicillin, 50 μg/ml streptomycin and 2.5 μg/ml fungizone (Amersham Biosciences) overnight. […] Some lenses were co-treated with TGFβ2 and the […], GM6001 (liomastat) (Chemicon International) at concentrations ranging from 10 to 25 μM or the MMP-2-9 inhibitor ((2R)-[(4-Biphenylylsulfonyl)amino]-N-hydroxyl-3-phenylpropionamide) (Chemicon) concentrations of either 10 and 25 μM. The GM6001 negative control (N-t-Butoxycarbonyl-L-leucyl-L-tryptophan Methylamide) (Calbiochem) (25 μM) was also employed. Lenses were then harvested at subsequent time-points of 2, 4 or 6 days and then photographed using a digital camera mounted to a dissecting scope. The lenses were then fixed for histology and immunofluorescence, or used for optical analysis. The conditioned media was also collected from each treatment group for zymography and western blot analysis.
The MMP inhibitor GM6001 was employed in the rat subcapsular cataract model in order to determine whether it could effectively suppress TGFβ-induced subcapsular cataract formation. To carry out these experiments, excised rat lenses were treated with exogenous TGFβ for a period of 6 days. […]

[3] = system: MMPs with gelatinolytic activity (MMP-2, MMP-9); test: Gelatin zymography of lens conditioned media; type: cell-based, rat; details: co-treated with TGFβ, 6 day time point, relative to TGFβ treated lenses
Experimental: An equal volume of each concentrate was electrophoresed on 10% SDS-polyacrylamide gels containing either 1 mg/ml gelatin or 2% beta-casein at a final concentration of 0.1% as the substrate. Following electrophoresis the gels were developed as described previously and stained in 0.5% coomassie brilliant blue for 1 hr followed by destaining with 10% iso-propanol. Sites of gelatinase or caseinase activity were detected as clear bands against a background of uniform staining, which was digitally photographed.
To examine the timing and level of induction of MMPs In subcapsular cataract formation zymography was performed on conditioned media of lenses from three different treatment groups (control, TGFβ, TGFβ plus GM6001 (25 μM)) and TGFβ plus MMPI-2/9 at the 6 day time point.

MMP-2 = test: Western blot of conditioned media for MMP-2; type: cell-based, rat; details: co-cultured with TGFβ
Experimental: (§2) To confirm the identity of the specific MMPs corresponding to the gelatinolytic bands in the zymograms and quantitate their levels over the 6 day time period, concentrated conditioned media from the treatment groups, control, TGFβ, TGFβ plus GM6001 (25 μM) and TGFβ plus MMPI-2/9, from three treatment times days 2, 4 and […], was subjected to western blot analysis using antibodies specific for both MMP-2 and MMP-9. Equal volumes of sample were electrophoresed on a 10% SDS-polyacrylamide gel. The resolved bands were electro-transferred onto a nitrocellulose membrane (Pall Corporation). Membranes were blocked with 5% skimmed milk powder in Tris-buffered saline (50 mM Tris base, NaCl pH 8.5) and 0.1% Tween-20 and then incubated overnight at 4° C. with a polyclonal antibody generated against MMP-9 (1:500; Chemicon International) or MMP-2 (1:500:Chemicon International) or E-adherin (1:1500; ED Transduction Laboratories).
as §1, with “The relative density versus control ratio (RD/C) was estimated using Graph Pad Prism Program (GraphPad).” left out, “A value of p<0.05 was considered significant.” left out

E-cadherin mRNA = E-cadherin mRNA in lens epithelium by LCM and RT-QPCR; type: cell-based, rat; details: 6 day treatment; for E-cadherin mRNA level in lens epithelium versus TGFβ alone, FIG. 6B / E-cadherin mRNA level in lens epithelium versus controls, FIG. 6B: co-treated with TGFβ
Experimental: E-cadherin mRNA expression in the rat lens epithelial region was determined for lenses from different treatment groups, TGF-β, TGF-β plus GM6001 (25 μM), TGF-β plus MMPI-2/9 or control (6 day treatment time), using Real time quantitative PCR, (RT-QPCR). For these experiments, cryostat sections of lenses were subjected to Laser Capture Microdissection (LCM) in order to specifically isolate the cells. LCM was used to further ensure that cells of the subcapsular plaques were obtained and not left adherent to the underlying fiber cell mass, which may have occurred with manual dissection. Following treatment, lenses were placed in a cryostat mould containing Tissue-Tek OCT (Sakura Finetek Torrance, Calif.), and frozen on dry ice then stored at −70° C. The frozen tissue was then sectioned at 5-8 μm in a cryostat, mounted on non-coated clean glass slides, and stored again at −70° C. Immediately before Laser Capture Microdissection (LCM), the frozen sections were thawed for 10 seconds and then stained with HistoGene™LCM Frozen Section Staining kit (Arcturus, Mountain View, Calif.) using the protocol provided with strict adherence to RNAse-free conditions. The slides were then dried for 5 minutes after which LCM of the tissue was completed within two hours. LCM was then performed using the PixCell II (Arcturus), as described by others. The HistoGene stain allowed for the identification of the general morphology of the epithelium. Cells from the epithelium of the lens were then captured on CapSure Macro LCM Caps (Arcturus) using the PixCell II LCM Microscope (Arcturus) with a minimal beam diameter of 7.5 μrm. Total cellular RNA was then extracted from lifted cells using a PicoPure™ RNA Isolation kit (Arcturus Engineering Inc). Purified RNA was analyzed both qualitatively and quantitatively using an Agilent 2100 Bioanalyser (Agilent Technologies, Foster City, Calif., USA). Standard 20 μl reverse transcription reactions were preformed (SuperScript II, Life Technologies). The quality of the recovered cDNA was measured using a microfluidic gel analyzer (Agilent Technologies). E-Cadherin gene expression from recovered cDNA was analyzed using RT-PCR using a 96 well TaqMan optical reaction plate format on an ABI Prism 7700 sequence detection system (Applied Biosystems, Foster City, Calif., USA). RNA was normalized to 18S for each reaction. Each 25 μl PCR reaction (including controls) contained TaqMan Universal master mix, gene-specific forward and reverse primers (Mobix, Hamilton), and probes for target and endogenous control genes (Applied Biosystems). Serial dilutions (1-5 fold) of standard samples were set up in separate wells in duplicate, for both 18S and E-cadherin gene targets. Standard and unknown samples were added in a volume of 5 μl. Thermal cycling parameters consisted of the following: 2 minutes at 50° C., 10 minutes at 95° C. followed by 40 cycles of 15 seconds at 95° C. and 1 minute at 60° C. The number of target gene copies was calculated from a standard curve generated in parallel with each batch of samples. A linear relationship was detected over at least five orders of magnitude. In all experiments, the correlation coefficient was between 0.997 and 0.986. […] All PCR for E-cadherin cDNA quantification were performed using standard cDNA dilution curves. Quantitative data were analyzed statistically using a student's t-test and expressed as ±standard deviation. […]

E-cadherin fragment = test: E-cadherin shedding, western blot of conditioned media; type: cell-based, rat; details: co-cultured with TGFβ, 6 day treatment
Experimental: as §2
To determine whether TGFβ treatment of the rat lens results in an induction of E-cadherin shedding and whether this can be modulated by MMPIs, previously concentrated conditioned media was obtained from the 6 day treatment groups outlined earlier, and subjected to western blot analyses using an antibody specific for extracellular domain of E-cadherin, and used in previous studies to detect the presence of soluble E-cadherin fragments. […]

[4] = system: TGFβ-induced rat lens cataract; test: Optical analysis (BVD error) in ex-vivo TGFβ-induced rat lens cataract model
[5] = TGFβ 2 ng/ml plus 25 μM test substance, 6 days

| Molecule | MMP-9 protein in conditioned media (western blot, densitometry), FIG. 5B,C (MMP-9) | Levels of gelatinolytic bands in conditioned media, FIG. 5A [3] | MMP-2 protein in conditioned media (western blot), FIG. 5B (MMP-2) | E-cadherin mRNA level in lens epithelium versus TGFβ alone, FIG. 6B (E-cadherin mRNA) | E-cadherin mRNA level in lens epithelium versus controls, FIG. 6B (E-cadherin mRNA) | E-cadherin fragment in conditioned media, FIG. 6A (E-cadherin fragment) | BVD error versus control lenses, FIG. 3 [4, 5] | further results |
| --- | --- | --- | --- | --- | --- | --- | --- | --- |
| O=C(NO)[C@@H](Cc1ccccc1)NS(=O)(=O)c1ccc(-c2ccccc2)cc1 [MMPI-2/9, (2R)-[(4-Biphenylylsulfonyl)amino]-N-hydroxyl-3-phenylpropionamide] | significant attenuation of MMP-9 | reduced levels of all gelationolytic bands | undetectable levels, similar to controls | significantly higher than those treated with TGFβ alone | significantly higher than that of controls | undetectable |  | αSMA immunoreactivity in lens sections, FIG. 4 ([1]; inhibitor): no observable immunoreactivity to αSMA; Subcapsular plaques / opacities, FIG. 4 ([2]; co-cultured with TGF-β): remained devoid of opacities |
| CNC(=O)[C@H](Cc1c[nH]c2ccccc12)NC(=O)[C@@H](CC(=O)NO)CC(C)C [GM6001] | significant reduction (**P<0.001); also recorded: significantly attenuated | reduced levels of all gelationolytic bands | undetectable levels, similar to controls | significantly higher than those treated with TGFβ alone | significantly higher than that of controls | Suppression in the levels of the E-adherin fragment | not significantly different from the control lenses | αSMA immunoreactivity in lens sections, FIG. 4 ([1]; 25 μM): no observable immunoreactivity to αSMA; BVD error versus control lenses, FIG. 3 ([4]; TGFβ 2 ng/ml plus 10 μM test substance, 6 days): significantly different from control lenses; BVD error versus control lenses, FIG. 3 ([4]; TGFβ 2 ng/ml plus 15 μM test substance, 6 days): significantly different from control lenses; BVD error versus control lenses, FIG. 3 ([4]; TGFβ 2 ng/ml plus 20 μM test substance, 6 days): not significantly different from the control lenses; Dosage effect on TGFβ-induced BVD error ([4]; TGFβ 2 ng/ml plus 10, 15, 20, 25 μM, 6 days): decrease in BVD error as the GM6001 concentration increases to 25 μM; BVD error (back vertex variability), FIG. 2 ([4]; day 6, lenses co-treated with TGF-β and GM6001, compared with TGF-β treated groups): both the TGF-β treated groups of lenses exhibited a significantly larger BVD error than the control group or the GM6001 co-treated lenses; Subcapsular plaques / opacities, FIG. 4 ([2]; co-cultured with TGFβ 2 ng/mL, 25 μM): remained devoid of opacities |
| CNC(=O)[C@H](Cc1c[nH]c2ccccc12)NC(=O)[C@H](CC(C)C)NC(=O)OC(C)(C)C [negative control for GM6001, N-t-Butoxycarbonyl-L-leucyl-L-tryptophan Methylamide] |  |  |  |  |  |  | significantly different from the controls |  |
| B1 |  |  |  |  |  |  |  | BVD error versus controls ([4]; TGFβ alone, 6 days): statistically greater than in controls; MMP-9 in conditioned media versus control, FIG. 5C (MMP-9; TGFβ 2 ng/ml alone): significant upregulation (*P<0.001); Suppression of E-cadherin mRNA in plaque tissue versus normal lens epithelium (E-cadherin mRNA; TGFβ alone): ~4 fold |
